IC50 data for two compounds are collected here from patent US5776943A, “Rapamycin metabolites” (American Home Products Corporation, priority 1991, dated 1998).

Where two headings read alike, the source gives them in different places.

The test system of the test is Human lymphocytes. The test is described as follows: PHA-stimulated human lymphocyte proliferation (3H-thymidine incorporation). The test is classed as cell-based. As to the method: Immunosuppressive activity of the collected fractions was evaluated in an in vitro standard pharmacological test procedure designed to measure lymphocyte proliferation. The procedure used is briefly described below.
Human lymphocytes were isolated from blood anticoagulated with heparin. Blood was centrifuged with ficoll at 545 g at room temperature for 20 min. The lymphocyte layer was washed with phosphate buffered saline by centrifugation at 280 g for 10 min and subsequently with the culture medium (430 g, 10 min). The cells were adjusted to a concentration of 10^6 cells/mL with RPMI 1640 medium supplemented with 2 mM glutamine, 100 U/mL penicillin, 100 μg streptomycin and 10% fetal calf serum. For each fraction evaluated, the 1 g/L solution in methanol was diluted with culture medium to provide a concentration of 1 mg/L. The concentration of metabolite in each fraction was determined by HPLC comparison with an external rapamycin standard curve. A solution composed of 100 μL of the cell suspension, containing 5 mg/L PHA, and 100 μL of the metabolite solution were pipetted into the wells of a 96-well plate. The cells were incubated for 44 h at 37° C. in a 5% CO2 atmosphere. After addition of 1 μCi ^3 H-thymidine/well the cells were incubated for additional 4.5 h. […] The thawed cells were harvested and ^3 H-thymidine incorporation was determined by liquid scintillation counting.

What is called IC50 is the point on the concentration scale where inhibition reaches its midpoint. Turning to `CO[C@H]1C[C@@H]2CC[C@@H](C)[C@@](O)(O2)C(=O)C(=O)N2CCCC[C@H]2C(=O)O[C@H]([C@H](C)C[C@@H]2CC[C@@H](O)[C@H](O)C2)CC(=O)[C@H](C)/C=C(\C)[C@@H](O)[C@@H](OC)C(=O)[C@H](C)C[C@H](C)/C=C/C=C/C=C/1C` [Example 1, 41-O-Desmethyl rapamycin], the IC50 (lymphocyte proliferation, human lymphocytes from heparin blood, PHA, incubated 44 h at 37° C., then 3H-thymidine 4.5 h, read-out: IC50) turned out to be 1 nM.
For the compound `CO[C@H]1C[C@@H]2CC[C@@H](C)[C@@](O)(O2)C(=O)C(=O)N2CCCC[C@H]2C(=O)O[C@H]([C@H](C)C[C@@H]2CC[C@@H](O)[C@H](OC)C2)CC(=O)[C@H](C)/C=C(\C)[C@@H](O)[C@@H](OC)C(=O)[C@H](C)C[C@H](C)/C=C/C=C/C=C/1C` [Rapamycin, rapamycin], it took 0.1 nM to reach half-maximal inhibition (Homo sapiens, Lymphocyte) (IC50).
